In patent US20120282245A1, “BIOMARKERS AND ASSAYS FOR THE TREATMENT OF CANCER” (BIOGEN IDEC MA INC., priority 2006, published 2012):

Assays:
canonical NFκB1 pathway = experiment: Western blot for phosphorylated IκBα and RelA (canonical NFκB1 activation); type: cell-based; settings: DLD-1 and WiDr cells, TNFα 20 ng/ml
Description: (§1) DLD-1 and WiDr adenocarcinoma cell lines were obtained from ATCC (Manassas, Va.), and cultured in MEM Earle's medium supplemented with 10% FBS. Antibodies against LTβR (N-15), TRAF3 (H-20 and H-122), TRAF2 (H-249), and NFκB2 (C-5) were obtained from Santa Cruz Biotechnology (Santa Cruz, Calif.). Antibodies against phosphorylated IκBα (5A5), phosphorylated RelA, and NIK were purchased from Cell Signaling Technologies (Beverly, Mass.).
LTβR was activated using 100 ng/ml of a humanized bi-specific, activating antibody (BS-1) developed at Biogen Idec, Inc. TNFα was used at a concentration of 20 ng/ml. During stimulation, cells were kept in a 37° C. incubator for indicated times.
(§2) Cells were treated for 10 minutes at 37° C. with media or activating antibody (BS-1) and washed twice in ice-cold PBS with protease and phosphatase inhibitors, followed by lysis by scraping in ice-cold lysis buffer [50 mM PIPES pH 6.8, 100 mM KCl, 2 mM MgCl2, 1 mM EGTA, 0.2% NP-40, and 10% Glycerol, supplemented with Complete EDTA-free protease inhibitor cocktail (Roche, Indianapolis, Ind.), 10 mM Sodium Fluoride, and 100 μM Sodium Orthovanadate]. […] Blots were developed using SuperSignal chemiluminescent detection substrates (Pierce), and detected on Biomax X-ray films (Kodak, Rochester, N.Y.) and/or directly on a Kodak ImageStation 2000R luminescence detector.

TRAF3 = experiment: Western blot for TRAF3 protein level; type: cell-based; settings: DLD-1 cells; BS-1 100 ng/ml or TNFα 20 ng/ml
Description: as §1
as §2, with “Orthovanadate]. Lysates were centrifuged at 14000 RPM for 30 minutes at 4° C., and supernatants were pre-cleared with normal goat IgG-agarose beads (Sigma, St. Louis, Mo.) by incubating on a rotator at 4° C.” for “Orthovanadate].”, “detector. […]” for “detector.”

TNFα
activation of NFκB1 (canonical NFκB1 pathway): identical in both cell-lines
TRAF3 level after stimulation (TRAF3): increases the levels of TRAF3
